Test results reported in US6429173B1, “Defloration agent for apple trees” (Agro-Kanesho Co., Ltd., priority 1998, dated 2002).

System: apple tree (variety: Fuji)
Experiment: Defloration effect (percentage of remaining fruits) after spraying a flowering apple branch
Format: in vivo
Conditions: Low temperature condition (14.6° C.); ethephon alone 100 ppm, compound (I) 0 ppm; 30 days after spraying
Excerpt: The ME preparation and ethephon preparation produced as described above were mixed together to obtain an application solution.
A branch having about 50 bunches of flowers was selected from a 13-year old apple tree (variety: Fuji). The application solution produced as described above was sprayed over the whole branch with a knapsack sprayer on the day after the full blossom of the central flower. The evaluation results are shown by percentages of remaining fruits (both central and lateral fruits) calculated by the formula shown below. The phytotoxicity was determined on the basis of defoliation, discolored leaves, state of leaves and also state of russet, and the results were classified into the following 5 ranks (− to +++).
Percentage of remaining fruits ≈ number of normal fruits on the test day/number of flowers on the treatment day × 100

## O=P(O)(O)CCCl [Ethephon, 2-chloroethylphosphonic acid]
  Fruit setting rate (%) Central fruit: 83%
  Fruit setting rate (%) Lateral fruit: 42%
